What is called EC50 is the concentration that produces a half-maximal response.

The values below come from US9290451B2 (Hoffmann-La Roche Inc., priority 2011, dated 2016).

One test has as its target human CB2 receptors (Homo sapiens (Human), UniProt P34972). As to the kind of experiment: cAMP assay, CHO cells expressing human CB2 receptors. Type of test: cell-based. The following applies: CHO cells expressing human CB2, cAMP; read-out: human CB2 EC50. In outline: (§1)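 EC50 values come from a TR-FRET cAMP read-out (standard curve 10 μM–0.13 nM cAMP) after 30 min compound exposure at 30 °C in IBMX (1 mM)-containing Krebs Ringer bicarbonate buffer, using CHO cells carrying human CB1 or CB2 receptors.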
For orientation: Cyclic AMP is a second messenger, typically raised through Gs and lowered through Gi signalling.

Another test concerns the target human CB1 receptors (Homo sapiens (Human), UniProt P21554). The test can be described thus: cAMP assay, CHO cells expressing human CB1 receptors. Type of test: cell-based. The following applies: CHO cells expressing human CB1, cAMP; read-out: human CB1 EC50. In outline:
as §1

Sequence of human CB2 receptors (P34972 whole entry): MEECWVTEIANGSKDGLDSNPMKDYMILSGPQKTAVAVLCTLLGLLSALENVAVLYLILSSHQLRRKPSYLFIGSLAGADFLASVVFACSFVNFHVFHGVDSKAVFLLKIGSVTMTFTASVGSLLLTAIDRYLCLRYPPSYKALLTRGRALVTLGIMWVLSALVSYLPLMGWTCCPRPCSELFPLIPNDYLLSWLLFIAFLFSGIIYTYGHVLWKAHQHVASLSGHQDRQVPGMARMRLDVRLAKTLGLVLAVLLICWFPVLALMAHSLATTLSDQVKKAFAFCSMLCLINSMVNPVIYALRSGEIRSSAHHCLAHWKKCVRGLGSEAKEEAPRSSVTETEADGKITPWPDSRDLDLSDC
Sequence of human CB1 receptors (P21554 whole entry): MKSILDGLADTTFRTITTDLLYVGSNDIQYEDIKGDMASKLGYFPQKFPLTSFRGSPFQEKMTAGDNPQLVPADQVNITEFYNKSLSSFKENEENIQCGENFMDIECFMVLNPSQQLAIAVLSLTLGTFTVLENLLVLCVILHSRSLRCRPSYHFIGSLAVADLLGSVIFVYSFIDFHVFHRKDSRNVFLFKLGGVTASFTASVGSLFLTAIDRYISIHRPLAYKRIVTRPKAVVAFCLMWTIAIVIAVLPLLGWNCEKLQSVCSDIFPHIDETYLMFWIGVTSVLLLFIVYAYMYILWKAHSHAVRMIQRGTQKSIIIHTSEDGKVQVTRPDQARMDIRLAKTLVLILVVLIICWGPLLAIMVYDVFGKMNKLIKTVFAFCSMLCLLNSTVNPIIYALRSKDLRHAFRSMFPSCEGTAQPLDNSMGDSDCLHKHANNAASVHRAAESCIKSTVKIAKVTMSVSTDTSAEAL

In the case of `Cc1nc(C(C)(C)NC(=O)c2ccc(C3(O)CCC3)c(OCC3CC3)n2)no1` [Example 160, 6-Cyclopropylmethoxy-5-(1-hydroxy-cyclobutyl)-pyridine-2-carboxylic acid [1-methyl-1-(5-methyl-[1,2,4]oxadiazol-3-yl)-ethyl]-amide], the EC50 at human CB2 receptors was 124 nM; at human CB1 receptors, over 10000 nM.
On to `COCCOc1nc(C(=O)N[C@@H](CC2CC2)C(N)=O)ccc1C1CC1` [Example 161, 5-Cyclopropyl-6-(2-methoxy-ethoxy)-pyridine-2-carboxylic acid ((S)-1-carbamoyl-2-cyclopropyl-ethyl)-amide], for which the half-maximal effective concentration (EC50) at human CB2 receptors is 124 nM; at human CB1 receptors it was over 10000 nM.
The matching figures for `NC(=O)[C@H](CC1CC1)NC(=O)c1ccc(N(CC(F)(F)F)CC(F)(F)F)c(OCC2CC2)n1` [Example 162, 5-[Bis-(2,2,2-trifluoro-ethyl)-amino]-6-cyclopropylmethoxy-pyridine-2-carboxylic acid ((S)-1-carbamoyl-2-cyclopropyl-ethyl)-amide]: 54.4 nM and 674 nM.
Taken in the same sequence, the figures for `Cc1nc([C@H](CC2CC2)NC(=O)c2ccc(C3CC3)c(OCC3CC3)n2)no1` [Example 163, 5-Cyclopropyl-6-cyclopropylmethoxy-pyridine-2-carboxylic acid [(S)-2-cyclopropyl-1-(5-methyl-[1,2,4]oxadiazol-3-yl)-ethyl]-amide] were 14.5 nM and over 10000 nM.
For the molecule `Cc1nc([C@H](CC2CC2)NC(=O)c2ccc(N3CC(F)(F)C3)c(-c3cccc(Cl)c3)n2)no1` [Example 164, 6-(3-Chloro-phenyl)-5-(3,3-difluoro-azetidin-1-yl)-pyridine-2-carboxylic acid [(S)-2-cyclopropyl-1-(5-methyl-[1,2,4]oxadiazol-3-yl)-ethyl]-amide], the EC50 at human CB2 receptors is 249 nM; on human CB1 receptors, over 10000 nM.
As for `CCC(CC)(NC(=O)c1ccc(N(CC(F)(F)F)CC(F)(F)F)c(OCC2CC2)n1)C(=O)NC` [Example 165, 5-[Bis-(2,2,2-trifluoro-ethyl)-amino]-6-cyclopropylmethoxy-pyridine-2-carboxylic acid (1-ethyl-1-methylcarbamoyl-propyl)-amide], the EC50 at human CB2 receptors worked out at 7.2 nM; at human CB1 receptors, 1200 nM.
Take `Cc1nc(C(C)(C)NC(=O)c2ccc(C3CC3)c(OCC3CCCO3)n2)no1` (centres unmarked) [Example 166, 5-Cyclopropyl-6-(tetrahydro-furan-2-ylmethoxy)-pyridine-2-carboxylic acid [1-methyl-1-(5-methyl-[1,2,4]oxadiazol-3-yl)-ethyl]-amide]: the EC50 on human CB2 receptors was 30.5 nM; at human CB1 receptors, over 10000 nM.
The matching figures for `CC(C)(C#N)NC(=O)c1ccc(C2CC2)c(OCC2CC2)n1` [Example 167, N-(2-Cyanopropan-2-yl)-5-cyclopropyl-6-(cyclopropylmethoxy)picolinamide]: 206 nM and over 10000 nM.
Take `CNC(=O)[C@@H](NC(=O)c1ccc(C2CC2)c(OCC2CC2)n1)C(C)(C)C` [Example 168, (S)-5-Cyclopropyl-6-(cyclopropylmethoxy)-N-(3,3-dimethyl-1-(methylamino)-1-oxobutan-2-yl)picolinamide]: the EC50 at human CB2 receptors was 0.6 nM; on human CB1 receptors it was 313 nM.
For `CC(C)C(C)(NC(=O)c1ccc(C2CC2)c(OCC2CC2)n1)C(N)=O` (centres unmarked) [Example 169, N-(1-Amino-2,3-dimethyl-1-oxobutan-2-yl)-5-cyclopropyl-6-(cyclopropylmethoxy)picolinamide], the values for the EC50 on human CB2 receptors and at human CB1 receptors were 182 nM and over 10000 nM, respectively.
Turning to `CCC(C)(NC(=O)c1ccc(C2CC2)c(OCC2CC2)n1)C(N)=O` (centres unmarked) [Example 170, N-(1-Amino-2-methyl-1-oxobutan-2-yl)-5-cyclopropyl-6-(cyclopropylmethoxy)picolinamide], the EC50 at human CB2 receptors was 194 nM; on human CB1 receptors, over 10000 nM.
On to `Cc1nc(C2(NC(=O)c3ccc(C4CC4)c(OCC4CC4)n3)CCC2)no1` [Example 171, 5-Cyclopropyl-6-(cyclopropylmethoxy)-N-(1-(5-methyl-1,2,4-oxadiazol-3-yl)cyclobutyl)picolinamide], for which the 50% effective concentration (EC50) on human CB2 receptors was 46.8 nM; at human CB1 receptors, over 10000 nM.
The matching figures for `NC(=O)[C@@H](NC(=O)c1ccc(C2CC2)c(OCC2CC2)n1)c1ccccc1` [Example 172, (S)-N-(2-Amino-2-oxo-1-phenylethyl)-5-cyclopropyl-6-(cyclopropylmethoxy)picolinamide]: 10.1 nM and over 10000 nM.
Taken in the same sequence, the figures for `NC(=O)[C@H](NC(=O)c1ccc(C2CC2)c(OCC2CC2)n1)c1ccccc1` [Example 173, (R)-N-(2-Amino-2-oxo-1-phenylethyl)-5-cyclopropyl-6-(cyclopropylmethoxy)picolinamide] were 23.1 nM and over 10000 nM.
As for `CC(C)C[C@H](CO)NC(=O)c1ccc(C2CC2)c(OCC2CC2)n1` [Example 174, (R)-5-Cyclopropyl-6-(cyclopropylmethoxy)-N-(1-hydroxy-4-methylpentan-2-yl)picolinamide], the EC50 is 32 nM on human CB2 receptors and over 10000 nM on human CB1 receptors.
The matching figures for `O=C(NC1(CO)CCCC1)c1ccc(C2CC2)c(OCC2CC2)n1` [Example 175, 5-Cyclopropyl-6-(cyclopropylmethoxy)-N-(1-(hydroxymethyl)cyclopentyl)picolinamide]: 47.8 nM and over 10000 nM.
Regarding `Cc1noc(C(C)(C)NC(=O)c2ccc(C3CC3)c(OCC3CC3)n2)n1` [Example 176, 5-Cyclopropyl-6-(cyclopropylmethoxy)-N-(2-(3-methyl-1,2,4-oxadiazol-5-yl)propan-2-yl)picolinamideinamide], the EC50 on human CB2 receptors is 114 nM; on human CB1 receptors, over 10000 nM.
For the molecule `CC(C)C[C@H](NC(=O)c1ccc(Br)c(Oc2ccc(F)cc2)n1)C(N)=O` [Example 177, 5-Bromo-6-(4-fluoro-phenoxy)-pyridine-2-carboxylic acid ((S)-1-carbamoyl-3-methyl-butyl)-amide], the EC50 was 196 nM at human CB2 receptors and over 10000 nM on human CB1 receptors.
Regarding `CC(C)CC(C)(NC(=O)c1ccc(C2CC2)c(OCC2CC2)n1)C(N)=O` (centres unmarked) [Example 178, N-(1-Amino-2,4-dimethyl-1-oxopentan-2-yl)-5-cyclopropyl-6-(cyclopropylmethoxy)picolinamide], the 50% effective concentration (EC50) is 42.2 nM at human CB2 receptors and over 10000 nM at human CB1 receptors.
As to `CC(C)(C)C(NC(=O)c1ccc(C2CC2)c(OCC2CC2)n1)C(N)=O` (centres unmarked) [Example 179, N-(1-Amino-3,3-dimethyl-1-oxobutan-2-yl)-5-cyclopropyl-6-(cyclopropylmethoxy)picolinamide], the EC50 on human CB2 receptors came out at 3.8 nM; at human CB1 receptors, 514 nM.
The matching figures for `NC(=O)C1(NC(=O)c2ccc(C3CC3)c(OCC3CC3)n2)CCOCC1` [Example 180, 5-Cyclopropyl-6-cyclopropylmethoxy-pyridine-2-carboxylic acid (4-carbamoyl-tetrahydro-pyran-4-yl)-amide]: 423 nM and over 10000 nM.
`CNC(=O)[C@H](CC(C)C)NC(=O)c1ccc(C2CC2)c(OCC2CC2)n1` [Example 181, (S)-5-cyclopropyl-6-(cyclopropylmethoxy)-N-(4-methyl-1-(methylamino)-1-oxopentan-2-yl)picolinamide]: the EC50 was found to be 1.3 nM on human CB2 receptors and 231 nM at human CB1 receptors.
